In patent US5157021A, “Insulin derivatives and pharmaceutical preparations containing these derivatives” (Novo Nordisk A/S, priority 1985, dated 1992):

Tested on: guinea pigs
Test: Hypoglycemia (blood glucose) in guinea pigs after subcutaneous injection of the insulin preparation
Assay type: in vivo, guinea pig
Experimental: 25 ml of a medium containing 1.6% (w/v) of glycerol. 0.33% (w/v) of m-cresol, 1/75M of sodium phosphate, pH value 7.3, were prepared. The solution was sterilized by filtration. 1.5 mg of human insulin-B21-methyl ester, prepared as described in Example 1, were suspended in 1.0 ml of medium.
4.5 mg of human insulin-A17-methyl ester were dissolved in 2.7 ml of 0.015M phosphoric acid. 21 mg of sodium chloride and 4.1 μlitres of an aqueous solution of 152 mM zinc chloride were added. The solution was sterilized by filtration. The pH value of the solution was adjusted to 8.0 under aseptic conditions with a sterile aqueous solution of sodium hydroxide. The pH value of the solution was then readjusted to 7.3 with sterile hydrochloric acid, and rhombohedral crystals with a mean size of 10 um were formed with gentle stirring at 21° C. The volume was adjusted to 3 ml with sterile water.
Moreover, a sterile solution of 3 ml of 13.5 mM phosphoric acid in admixture with 21 mg of sodium chloride and 9 μlitres of m-cresol was prepared, and the pH value was adjusted to 7.3 with a sterile aqueous solution of sodium hydroxide. The two solutions were combined.
15 mg of human insulin-A4-gln, obtained as described in Example 5, was dissolved in 10 ml of a solution containing 13.5 mM phosphoric acid, 0.3% m-cresol and 1.6% glycerol. The solution was sterilized by filtration, and the pH value was adjusted to 9,0 with a sterile aqueous solution of sodium hydroxide. The pH value was readjusted to 8.2 with a sterile solution of hydrochloric acid, and human insulin-A4-gln crystallized as rhombohedral crystals with gentle stirring.

[1] = dosage 18 μg/kg, crystalline zinc preparation pH 7.3

Human insulin-A4-gln
protracted hypoglycemic effect compared with "Insulatard" at 0.5 IU/kg (subcutaneous injection of crystalline suspension at 0.5 IU/kg): nearly identical both in timing and amplitude

Human insulin-A17-methyl ester
biological activity indicated by area below the blood glucose curve, relative to human insulin [1]: nearly the same biological activity as human insulin
hypoglycemia [1]: strongly protracted hypoglycemia
protracted insulin action compared with "Insulatard" [1]: longer than the protracted action of the known injection preparation

Human insulin-B21-methyl ester
protracted insulin action compared with "Insulatard" (subcutaneous, zinc-free suspension 1.5 mg in 1.0 ml medium, pH 7.3): comparable to the hypoglycemia observed after injection of a standard protamin insulin preparation
